Columns and labels:
B51 breast tumor cells = assay: B51 breast tumor recurrence after paclitaxel; type: in vivo, NOD-SCID mice; details: 59R1 10 mg/kg twice per week plus paclitaxel 15 mg/kg twice per week for 38 days, then antibody only
Experimental: B51 breast tumor cells (50,000 cells per mouse) were injected sub-cutaneously into the mammary fat pad of NOD-SCID mice. Tumors were allowed to grow for 50 days until they had reached an average volume of ˜100 mm^3. Animals were randomized (n=10/group) and treatments were initiated. One group received a control antibody (1B711) at 10 mg/kg twice per week and paclitaxel (Taxol) at 15 mg/kg twice per week and the other group received 59R1 at 10 mg/kg twice per week and paclitaxel at 15 mg/kg twice per week. Tumor volumes were measured on the indicated days. Treatments were carried out for 38 days until the tumor volumes had regressed to ˜50 mm^3, after which the paclitaxel treatments were halted and the antibody treatments continued for the duration of the experiment.

[1] = system: PN4 pancreatic tumor cells; assay: PN4 pancreatic tumor xenograft growth; type: in vivo, NOD/SCID mice
Experimental: In another experiment, anti-Notch2/3 antibodies were tested for an effect on pancreatic tumor growth. NOD/SCID mice were injected with 30,000 PN4 pancreatic tumor cells sub-cu in the right flank, and tumors were allowed to grow until they had reached an average volume of 100 mm^3. Animals were randomized and dosing of anti-Notch2/3 antibody 59R1 or control antibody 1B711 was initiated. Antibodies were dosed at 15 mg/kg given once per week.
PN4 pancreatic tumor cells (50,000 cells per mouse) were injected subcutaneously into the flank region of Nod-Scid mice. Tumors were allowed to grow for 27 days until they had reached an average volume of ˜120 mm^3. Animals were randomized into four treatment groups (n=10/group) and treatments were initiated. One group received a control antibody (1B711) at 10 mg/kg twice per week; one group received gemcitabine at 40 mg/kg once per week plus the control antibody at 10 mg/kg twice per week; one group received 59R1 at 10 mg/kg twice per week, and the fourth group received the combination of 59R1 at 10 mg/kg twice per week and gemcitabine 40 mg/kg once per week. Tumor volumes were measured on the indicated days.

[2] = system: hJAG1-induced Notch2 signaling; assay: Luciferase reporter assay, hJAG1-induced Notch2 signaling in Hela cells; type: cell-based, human; details: 40 μg/ml
Experimental: Luciferase reporter assays were used to assay the 59R1 antibody for its ability to block hDLL4-, hJAG1-, and hJAG2-induced Notch2 signaling.
Hela cells that stably overexpress human Notch2 were transiently transfected with firefly luciferase with a synthetic 8×CBS promoter, pSPORT6 MAML-1, and Renilla luciferase-CMV as a transfection control. Cells were incubated with either 200 ng of immobilized hJAG1 (R&D systems) or hJAG2 (R&D systems) for 16 hours and then assayed using Dual-Glo (Promega) according to the manufacturer's instructions. 59R1 IgG2 antibody was at a concentration of 40 μg/ml. The gamma secretase inhibitor (GSI) dibenzazepine (DBZ) was used as a control at 1 μM.

[3] = system: breast tumor xenograft line OMP-B39; assay: OMP-B39 breast tumor xenograft growth; type: in vivo, NOD/SCID mice; details: established tumors, 15 mg/kg once a week
Experimental: The 59R1 IgG2 antibody was also tested in vivo in the breast tumor xenograft lines OMP-B34, OMP-B39, OMP-B44, PE13, and UM-T1, the pancreas tumor xenograft line OMP-PN8, and the colon tumor xenograft line OMP-C8. These tumor xenograft lines were established by adhering to procedures described in Al-Hajj et al., 2003, Proc. Natl. Acad. Sci. USA, 100:3983-3988. Female NOD/SCID immuno-compromised mice 7-10 weeks old were used for the establishment of the breast tumor xenografts and male NOD/SCID mice were used for the OMP-Pn8 and OMP-C8 tumor-models (Harlan, Indianapolis, Ind.). The 59R1 IgG2 antibody was also tested in vivo in a Colo-205 colon tumor xenograft model. Female immunodeficient bg/nu XID mice on a Swiss CD-1 background were used for the Colo-205 xenograft tumor model. In case of the breast cancer models, slow-releasing estrogen pellets (0.36 mg) had to be implanted. Mice were subcutaneously injected on the right flank with 50,000 (OMP-B34, OMP-B39, OMP-B44, PE13, and UM-T1) or 1×10^7 (Colo-205) viable cells, respectively, in a mixture of PBS (without magnesium or calcium) and Matrigel at a 1:1 ratio. […] Antibodies were administered weekly and tumors measured twice weekly. […] Tumor volume was calculated as described Al-Hajj et al. (2003). Data are expressed as the mean and the mean±S.E.M. Group means were compared using Student's two-tailed, unpaired t-test. […]

murine Notch3 = assay: DLL4-Fc induced receptor activation in transfected PC3 cells, murine Notch3; type: cell-based, mouse; details: immobilized DLL4-Fc
Experimental: 59R5 was determined to have similar activity in blocking Notch2 and Notch3 signaling as 59R1. Receptor activation was determined in luciferase-based assays. PC3 tumor cells were transiently transfected with a human or mouse Notch receptor (human Notch2, murine Notch2, human Notch3, or murine Notch3) and […] inducible reporter construct. Transfected cells were incubated with different concentrations of 59R1 or 59R5 antibody in the presence of passively immobilized DLL4-Fc protein. Notch receptor activation was determined by measuring luciferase activity.

Row | Substance | B51 tumor recurrence after paclitaxel treatment (B51 breast tumor cells) | PN4 tumor growth, combination of 59R1 and gemcitabine ([1]; 59R1 10 mg/kg twice per week and gemcitabine 40 mg/kg once per week) | PN4 tumor growth compared to control ([1]; established tumors, 15 mg/kg once per week) | hJAG1-induced Notch2 reporter activity [2] | B39 breast cancer growth relative to control antibody [3] | ligand-induced activation of murine Notch3 receptor signaling (murine Notch3)
1 | 59R1: human IgG2 antibody binding Notch2 and Notch3; heavy and light chain SEQ ID NO:16 and 18; ATCC PTA-9547 | recur more rapidly in the control group compared with the group treated with 59R1 | inhibited | significantly reduced | inhibit | inhibit breast cancer growth | –
2 | 59R5: human antibody that specifically binds human Notch 2 and human Notch 3; heavy and light chain SEQ ID NO:49 and 18; ATCC PTA-10170 | – | – | – | – | – | blocked

— patent publication US8226943B2, “Antibodies to notch receptors” (OncoMed Pharmaceuticals, Inc., priority 2008, dated 2012)
